One experiment concerns squid giant axon. Put plainly: Axonal transport of injected fluorescent bead cargo, confocal time-lapse. The experiment is classed as cell-based, North Atlantic Long-Finned Squid (Loligo pealleii).
Experiment [1] addresses APP-C peptide of the affinity measurement (15 aa; human or squid sequence not told). Put plainly: pull-down.

As for GYENPTYKFFEQMQN [hAPP-C], the Run length with squid giant axon (calculated as v1/k1) is 11.5 μm. For the same substance, the “Detachment rate k1” value with squid giant axon (from average run time, Poisson distribution, run v1 > 0.1 μm s^−1, about 40 runs) amounted to 0.0322 s⁻¹.

As to “kinesin-1 of rat brain extract (from UniProt Q2PQA9 1-963) (complex)”, the Kd in experiment [1] worked out at 4.7 nM.
